Measured values taken from patent publication US20120232062A1, “AZAINDAZOLES TO TREAT FLAVIVIRIDAE VIRUS INFECTION” (EIGER BIOPHARMACEUTICALS, INC., priority 2009, published 2012).

Biological target: T1, hERG channel (Homo sapiens, UniProt Q12809)
T1 construct: host or cells: CHO (Chinese Hamster Ovary), stably transfected
Assay: hERG channel assay
Assay type: cell-based
Conditions: CHO cell line expressing hERG, whole cell recordings
Description: The most common mechanism for these adverse events is the inhibition of one or more cardiac potassium channels, in particular hERG. This current is important for cardiac myocyte repolarization and is a common target for drugs that prolong the QT interval. Test articles in this study were therefore characterized to determine their ability to inhibit the hERG channel. Ion channel activity was measured using a stably transfected Chinese Hamster Ovary (CHO) cell line expressing the hERG mRNA. The pharmacology of this cloned channel expressed in the CHO cell line is very similar to that observed in native tissue.
Cells: AVIVA's CHO cell line, which stably expresses hERG channels, was used for the study. Cells were cultured in DMEM/F12 containing 10% FBS, 1% penicillin/streptomycin and 500 μg/ml G418. Before testing, cells were harvested using Accumax (Innovative Cell Technologies).
Solutions: For electrophysiological recordings, the following solutions were used. External Solution: 2 mM CaCl2; 2 mM MgCl2; 4 mM KCl; 150 mM NaCl; 10 mM Glucose; 10 mM HEPES; 310-320 mOsm; pH 7.4 (adjusted with 1M NaOH). Internal Solution: 140 mM KCl; 10 mM MgCl2; 6 mM EGTA; 5 mM HEPESNa; […]; 300-320 mOsm; pH 7.25 (adjusted with 1M KOH).
Electrophysiology: Whole cell recordings were performed using PX 7000A (Axon Instruments) with VIVA's SealChip™ technology. Cells were voltage clamped at a holding potential of −80 mV. The hERG current was then activated by a depolarizing step to −50 mV for 300 ms. This first step at −50 mV was used as a baseline for measuring peak amplitude of the tail current. Next, a voltage step to +20 mV was applied for 5 s to activate the channels. Finally a step back to −50 mV for 5 seconds removed activation and the deactivating tail current was recorded.
Compound Handling and Dilutions: All compounds were prepared from either 10 or 30 mM DMSO stock solutions. Solutions were mixed by sonication for 20 min, followed by vigorous vortexing. Prior to testing, compounds were diluted to test concentrations in glass vials using External Solution. Dilutions were prepared no longer than 20 min prior to use. Equal amounts of DMSO (0.1%) were present in all final dilutions.
Electrophysiology Procedures: After achieving whole cell configuration, cells were monitored for 90 s to assess stability and then washed with External Solution for 66 s. The voltage protocol described above was then applied to the cells every 12 s throughout the procedure. Only stable cells with recording parameters above threshold (see Quality Control section) were allowed to enter the drug addition procedure. External solution containing 0.1% DMSO (vehicle) was applied to the cells to establish a baseline. After allowing the current to stabilize for 3 to 5 min, test articles were applied. Test article solutions were added to cells in 4 separate additions. Cells were kept in test solution until effect of the test article reached steady state, to a maximum of 12 min. Next, 1 μM cisapride (positive control) was added. Finally, washout with External Solution was performed until the recovery current reached a steady state.
Data Analysis: Data analysis was performed using DataXpress (Axon Instruments), Clampfit (Axon Instruments) and Origin (Originlab Corporation) software.

T1 sequence (Q12809 whole entry): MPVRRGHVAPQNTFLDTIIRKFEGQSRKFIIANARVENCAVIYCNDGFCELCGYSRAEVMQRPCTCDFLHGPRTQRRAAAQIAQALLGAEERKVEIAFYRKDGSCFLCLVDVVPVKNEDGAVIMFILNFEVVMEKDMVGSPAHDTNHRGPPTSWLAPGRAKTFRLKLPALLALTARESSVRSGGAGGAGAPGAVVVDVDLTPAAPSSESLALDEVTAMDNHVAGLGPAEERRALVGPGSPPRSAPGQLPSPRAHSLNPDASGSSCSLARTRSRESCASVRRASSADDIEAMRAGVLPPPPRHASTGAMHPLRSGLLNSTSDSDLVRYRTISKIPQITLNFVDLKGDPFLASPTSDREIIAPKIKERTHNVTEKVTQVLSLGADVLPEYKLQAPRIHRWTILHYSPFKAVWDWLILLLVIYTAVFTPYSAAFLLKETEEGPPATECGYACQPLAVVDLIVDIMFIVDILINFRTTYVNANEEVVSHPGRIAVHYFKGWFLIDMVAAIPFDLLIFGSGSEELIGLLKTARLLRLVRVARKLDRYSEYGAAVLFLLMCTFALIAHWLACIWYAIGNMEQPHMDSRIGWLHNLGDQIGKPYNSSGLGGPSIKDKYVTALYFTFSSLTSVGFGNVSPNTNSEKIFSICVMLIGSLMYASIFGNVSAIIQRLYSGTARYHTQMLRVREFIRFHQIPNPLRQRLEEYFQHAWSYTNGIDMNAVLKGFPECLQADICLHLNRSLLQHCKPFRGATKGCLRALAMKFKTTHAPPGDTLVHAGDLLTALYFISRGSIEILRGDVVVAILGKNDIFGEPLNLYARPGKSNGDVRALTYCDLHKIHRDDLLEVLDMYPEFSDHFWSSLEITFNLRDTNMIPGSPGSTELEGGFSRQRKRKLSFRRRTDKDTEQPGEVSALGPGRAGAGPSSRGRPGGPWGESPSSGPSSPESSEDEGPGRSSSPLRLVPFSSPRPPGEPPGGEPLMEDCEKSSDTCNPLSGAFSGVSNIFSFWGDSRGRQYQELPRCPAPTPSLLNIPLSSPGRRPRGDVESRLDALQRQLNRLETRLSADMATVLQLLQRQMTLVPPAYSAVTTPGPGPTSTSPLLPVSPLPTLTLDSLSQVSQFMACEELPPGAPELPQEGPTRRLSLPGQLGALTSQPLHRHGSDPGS

SMILES	IC50 [µM]
Cn1nc(C(=O)NC2CCNCC2)c2ccc(N3CCCCCC3)nc21.O=C(O)C(F)(F)F.O=C(O)C(F)(F)F [compound 697]	> 10
CCC(CC)Oc1ccc2c(C(=O)NC3CCNCC3)n[nH]c2n1 [compound 726]	> 10
Clc1ccc(Cn2nc(COCCCN3CCCCC3)c3ccc(N4CCCCCC4)nc32)cc1 [compound 749]	3.3
CCC(CC)Oc1ccc2c(COCC3CCCNC3)nn(Cc3ccc(Cl)cc3)c2n1.O=C(O)C(F)(F)F (stereo not drawn) [compound 755]	> 10
O=C(NC1CCNCC1)c1nn(C(=O)C2CCCCC2)c2nc(N3CCCCCC3)ccc12.O=C(O)C(F)(F)F.O=C(O)C(F)(F)F.O=C(O)C(F)(F)F [compound 989]	> 10
Cn1nc(C(=O)NC2CCN(CCN3CCCCC3)CC2)c2ccc(N3CCCCCC3)nc21 [compound 1047]	9.5
Cn1nc(C(=O)NC2CCN(CC3CCCCC3)CC2)c2ccc(N3CCCCCCC3)nc21 [compound 1062]	> 10
CCN1CCC(NC(=O)c2nn(C)c3nc(N4CCCCCC4)ccc23)CC1 [compound 1595]	1.1
Cn1nc(C(=O)NC2CCN(CCN3CCCC3)CC2)c2ccc(N3CCCCCC3)nc21 [compound 1597]	9.1
